Source: patent US10066272B2, “Human homeobox gene ventx and macrophage terminal differentiation and activation, compositions and methods thereof” (priority 2011, dated 2018)

What was measured:
macrophages = assay: Secreted pro-inflammatory cytokines from macrophage culture supernatants (ELISA); type: cell-based, human; details: transfected macrophages, TNF-α, IL1-β and IL12p70 by ELISA (FIG. 8B)
Experimental: Macrophages were generated through incubation of freshly isolated monocytes with 100 ng/mL M-CSF for 4 days. These macrophages were then transfected with siGFP or siVentX, respectively, and further cultured in RPMI 1640 medium for additional 3 days. Thereafter, cells were exposed to 1 μg/mL LPS plus 20 ng/mL γ-IFN for 6 hours. (A) Surface staining of CD40, CD80, CD86 and HLA-DR and intracellular staining of TNF-α and IL1-β were analyzed by flow cytometry. (B) Secreted TNF-α, IL1-β and IL12p70 from culture supernatants were determined with ELISA kits. (C) Reactive oxygen species (ROS) from siGFP or siVentX transfected macrophages were analyzed with fluorescence microscope (left) and flow cytometry (middle). […] (D) Nitrate level from siGFP and siVentX transfected macrophages. Data represent mean+SD of three different experiments. (E) Phagocytosis of siGFP and siVentX transfected macrophage. Red histogram represents transfection with siGFP; green histogram represents transfection with siVentX. Left panel: cells were incubated on ice; right panel: cells were incubated at 37° C. (F) Effects of VentX knockdown on mixed lymphocyte reaction. […]
Levels of IL-1β and TNF-α and IL12p70 in the supernatants of E. coli LPS (Sigma) and IFN-γ (PeproTech) treated macrophage or LPS treated U937 cells were quantified using ELISA kits obtained from eBiosciences. […]

[1] = test system: cultured monocytes/macrophages; assay: Phagocytosis assay with pHrodo S. aureus BioParticles; type: cell-based, human
Experimental: (A) Left panel: Flow cytometry analysis of indicated surface markers in monocytes transfected with siGFP or siVentX, respectively; right panel: bar graphs show the mean+SD of at least three separate experiments. *p<0.05; **p<0.01. (B) Effects of VentX knockdown on macrophage viability. Monocytes were transfected with either siGFP or siVentX and subsequently exposed to 100 ng/mL M-CSF for 3 days. Cells were then harvested and stained with PI and Annexin V and analyzed by flow cytometry. (C) Effects of VentX knockdown on phagocytosis. Monocytes were transfected with siGFP or siVentX. Phagocytosis assays were carried out as described in materials and methods. […]
Macrophages were generated through incubation of freshly isolated monocytes with 100 ng/mL M-CSF for 4 days. […] (A) Surface staining of CD40, CD80, CD86 and HLA-DR and intracellular staining of TNF-α and IL1-β were analyzed by flow cytometry. (B) Secreted TNF-α, IL1-β and IL12p70 from culture supernatants were determined with ELISA kits. (C) Reactive oxygen species (ROS) from siGFP or siVentX transfected macrophages were analyzed with fluorescence microscope (left) and flow cytometry (middle). […]
Phagocytosis of cultured monocytes/macrophages or U937 cells were performed with pHrodo™ S. aureus BioParticles® conjugates from Invitrogen. […] After extensive washings, cellular phagocytosis of bioparticles was monitored by flow cytometry. […]

siVentX: VentX siRNA, forward 5′-UUCAGAAUCGCCGCAUGAAACACAAACGG-3′ (SEQ ID NO:4), reverse SEQ ID NO:5 (antisense CCGUUUGUGUUUCAUGCGGCGAUUCUGAA; listed as RNA, chemistry not given here)
pro-inflammatory cytokine secretion (macrophages): significant reduction
phagocytotic capability of transfected macrophages ([1]; macrophages (FIG. 8E)): much weaker
phagocytotic activity of transfected monocytes ([1]; monocytes, in comparison with the control (FIG. 3C)): reduced phagocytotic activity
